In one experiment the target is PI3Kdelta (Homo sapiens (Human), UniProt O00329). As to the kind of experiment: HTRF PI3K biochemical assay, delta isoform. To be noted: 0.3 nM enzyme, 100 uM ATP, 5 uM PIP2, form screened per table (Neutral or TFA salt). An excerpt: (§1) HTRF PI3K Biochemical Assay to Measure Intrinsic Potency of Compound Inhibitors
(§2) The PI3-Kinase biochemical assays were developed to measure the intrinsic potency and compound dependent inhibition of the alpha, beta, delta, and gamma PI3K isoform enzymes. This assay was developed and further optimized from a kit produced by Upstate (Millipore catalog #33-047) (Millipore Sigma. Billerica Mass., USA) and has been configured for high throughput screening (HTS) and structure-activity relationship (SAR) screening. Briefly, this procedure exploits the exquisite specificity and high affinity binding of enzyme reaction […] phosphatidyl(3,4,5)triphosphate (PIP3) to the GRP1 pleckstrin homology (PH) domain to generate the signal. In the absence of PIP3, an HTRF (Homogeneous Time-Resolved Fluorescence energy transfer) complex is formed consisting of europium (Eu)-labeled anti-GST, GSTtagged GRP1-PH domain, biotin-PIP3 (biotinylated-PIP3) and streptavidin conjugated APC (Allophycocyanin). The native PIP3 produced by PI3-Kinase activity disrupts in a competitive manner the biotin-PIP3 from the pleckstrin homology (PH) domain, resulting in the loss of energy transfer (HTRF complex) and a decrease in the signal. The format of this assay is the same for all 4 isoforms of PI3K; the differences lie in the concentration of enzyme used to achieve robust assay window. The alpha, beta, and delta assays are run at 0.5, 1, and 0.3 nM enzymes and the gamma assay is run at 5 nM enzyme. The ATP concentration is 100 uM in the alpha, beta, and delta assays and 50 uM adenosine triphosphate (ATP) in the gamma assay. All reactions are run at 5 uM PIP2.
(§3) Compounds are serially diluted (3-fold in 100% DMSO) across a 384-well polypropylene source plated from column 3 to column 12 and column 13 to column 22, to yield 10 concentration dose response for each test compound. Columns 1, 2, 23 and 24 contain either only DMSO or pharmacological known control inhibitor. Once titrations are made, 2.5 nL of the compounds on 384 well plates are reformatted and transferred by acoustic dispense in quadruplicates to a 1536 assay plate (Greiner) to assay across all four PI3K isoform enzymes.
(§4) The PI3-Kinase biochemical assay was optimized using the HTRF kit provided by Upstate (Millipore). The assay kit contains six reagents: 1) 4×Reaction Buffer; 2) native PIP2 (substrate); 3) Stop (EDTA); 4) Detection Mix A (Streptavidin-APC); 5) Detection Mix B (Eu-labeled Anti-GST plus GST-tagged PH-domain): 6) Detection Mix C. In addition, the following items were obtained or purchased; PI3Kinase (catalog #'s alpha 14-602, beta 14-603, gamma 14-558 and delta 14-604 from Upstate Biotechnology now EMD Millipore, Mahopac, N.Y., USA), dithiothreitol (Sigma-Aldrich Corp. (St. Louis, Mo., USA) Catalog #D-5545), Adenosine-5′ triphosphate (InVitrogen (Waltham, Mass., USA), Cat#AS001 Å), native PIP3 (PI(3,4,5)P3, diC8, H^+, CELLSIGNALS, INC., (Columbus, Ohio, USA) Cat #907) DMSO ((Sigma-Aldrich Corp. (St. Louis. Mo., USA) Catalog #472301).
(§5) PI3Kinase Reaction Buffer is prepared by dilution the stock 1:4 with de-ionized water. DTT (DL-Dithiothreitol), phosphatidylinositol 4,5-bisphosphate (PIP2) and Biotin-PIP3 were added to 1536 assay plate at a final concentration of 5 mM, […] and 25 nM on the day of use. Enzyme addition and compound pre-incubation are initiated by the addition of 1.25 ul of PI3K (at twice its final concentration) in the 1× reaction buffer to all wells using a BioRaptor™. Plates are incubated at room temperature for 15 minutes. Reactions are initiated by addition of 1.25 ul of 2× substrate solution (PIP2 and ATP in 1× reaction buffer) using BioRaptor™. Plates are incubated in humidified chamber at room temperature for one hour. Reactions are quenched by addition of 0.625 uL of stop solution to all wells using the BioRaptor™. […]
A general note: Time-resolved FRET reads energy transfer from a long-lived donor to a nearby acceptor.

Another experiment concerns the target PI3Kalpha (Homo sapiens (Human), UniProt P42336). As to the kind of experiment: HTRF PI3K biochemical assay, alpha isoform (for selectivity ratio). To be noted: ratio PI3K-alpha IC50 value / PI3K-delta IC50 value.
Source text: as §1, §2, §3, §4, §5

Chain of PI3Kdelta (O00329 whole entry, canonical isoform): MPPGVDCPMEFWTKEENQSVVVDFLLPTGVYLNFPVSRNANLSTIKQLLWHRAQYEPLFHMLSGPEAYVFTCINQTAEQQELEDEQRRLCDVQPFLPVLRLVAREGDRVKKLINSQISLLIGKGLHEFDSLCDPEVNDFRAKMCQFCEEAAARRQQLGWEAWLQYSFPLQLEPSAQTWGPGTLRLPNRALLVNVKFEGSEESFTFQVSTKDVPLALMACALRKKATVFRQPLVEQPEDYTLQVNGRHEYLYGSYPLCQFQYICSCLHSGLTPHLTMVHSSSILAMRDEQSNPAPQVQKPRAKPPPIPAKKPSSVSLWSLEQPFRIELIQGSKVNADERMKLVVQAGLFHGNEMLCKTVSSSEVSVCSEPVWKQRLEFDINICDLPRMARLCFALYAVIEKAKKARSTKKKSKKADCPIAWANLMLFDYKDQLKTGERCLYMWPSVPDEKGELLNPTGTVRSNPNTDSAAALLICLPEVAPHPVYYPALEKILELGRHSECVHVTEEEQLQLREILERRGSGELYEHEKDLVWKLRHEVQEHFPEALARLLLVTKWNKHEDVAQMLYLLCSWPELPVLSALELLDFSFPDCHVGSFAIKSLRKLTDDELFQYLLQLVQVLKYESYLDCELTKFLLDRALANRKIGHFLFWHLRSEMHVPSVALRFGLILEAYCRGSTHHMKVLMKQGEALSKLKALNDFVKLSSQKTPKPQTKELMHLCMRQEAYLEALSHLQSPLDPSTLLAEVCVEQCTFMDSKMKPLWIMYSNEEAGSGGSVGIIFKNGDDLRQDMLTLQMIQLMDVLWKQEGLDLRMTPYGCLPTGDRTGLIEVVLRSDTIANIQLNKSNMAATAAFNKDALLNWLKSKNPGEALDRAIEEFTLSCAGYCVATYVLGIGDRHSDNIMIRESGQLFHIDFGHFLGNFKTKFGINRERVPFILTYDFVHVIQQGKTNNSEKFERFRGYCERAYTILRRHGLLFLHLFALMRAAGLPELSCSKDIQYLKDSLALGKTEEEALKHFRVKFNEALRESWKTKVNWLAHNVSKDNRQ
Chain of PI3Kdelta (P27986 whole entry partner, canonical isoform): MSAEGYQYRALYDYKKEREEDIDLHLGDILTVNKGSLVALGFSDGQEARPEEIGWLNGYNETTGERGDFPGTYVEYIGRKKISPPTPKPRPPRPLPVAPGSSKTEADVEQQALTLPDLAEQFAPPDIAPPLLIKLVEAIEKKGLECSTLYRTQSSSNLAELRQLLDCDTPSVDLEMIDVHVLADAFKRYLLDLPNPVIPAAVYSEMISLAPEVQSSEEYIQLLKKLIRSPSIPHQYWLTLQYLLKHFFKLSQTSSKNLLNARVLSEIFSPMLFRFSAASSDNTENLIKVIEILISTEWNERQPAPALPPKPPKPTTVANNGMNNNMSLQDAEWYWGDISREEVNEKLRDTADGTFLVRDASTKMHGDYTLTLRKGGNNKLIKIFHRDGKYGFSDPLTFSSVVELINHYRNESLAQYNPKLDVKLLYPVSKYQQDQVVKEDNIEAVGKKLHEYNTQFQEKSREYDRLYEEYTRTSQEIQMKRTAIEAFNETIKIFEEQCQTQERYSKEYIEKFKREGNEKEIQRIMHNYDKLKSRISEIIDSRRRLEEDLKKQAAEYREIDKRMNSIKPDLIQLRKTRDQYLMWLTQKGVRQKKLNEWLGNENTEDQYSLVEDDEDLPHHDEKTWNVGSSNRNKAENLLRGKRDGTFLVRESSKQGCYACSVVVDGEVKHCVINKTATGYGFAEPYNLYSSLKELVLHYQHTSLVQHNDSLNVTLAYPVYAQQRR
Chain of PI3Kalpha (P42336 whole entry, canonical isoform): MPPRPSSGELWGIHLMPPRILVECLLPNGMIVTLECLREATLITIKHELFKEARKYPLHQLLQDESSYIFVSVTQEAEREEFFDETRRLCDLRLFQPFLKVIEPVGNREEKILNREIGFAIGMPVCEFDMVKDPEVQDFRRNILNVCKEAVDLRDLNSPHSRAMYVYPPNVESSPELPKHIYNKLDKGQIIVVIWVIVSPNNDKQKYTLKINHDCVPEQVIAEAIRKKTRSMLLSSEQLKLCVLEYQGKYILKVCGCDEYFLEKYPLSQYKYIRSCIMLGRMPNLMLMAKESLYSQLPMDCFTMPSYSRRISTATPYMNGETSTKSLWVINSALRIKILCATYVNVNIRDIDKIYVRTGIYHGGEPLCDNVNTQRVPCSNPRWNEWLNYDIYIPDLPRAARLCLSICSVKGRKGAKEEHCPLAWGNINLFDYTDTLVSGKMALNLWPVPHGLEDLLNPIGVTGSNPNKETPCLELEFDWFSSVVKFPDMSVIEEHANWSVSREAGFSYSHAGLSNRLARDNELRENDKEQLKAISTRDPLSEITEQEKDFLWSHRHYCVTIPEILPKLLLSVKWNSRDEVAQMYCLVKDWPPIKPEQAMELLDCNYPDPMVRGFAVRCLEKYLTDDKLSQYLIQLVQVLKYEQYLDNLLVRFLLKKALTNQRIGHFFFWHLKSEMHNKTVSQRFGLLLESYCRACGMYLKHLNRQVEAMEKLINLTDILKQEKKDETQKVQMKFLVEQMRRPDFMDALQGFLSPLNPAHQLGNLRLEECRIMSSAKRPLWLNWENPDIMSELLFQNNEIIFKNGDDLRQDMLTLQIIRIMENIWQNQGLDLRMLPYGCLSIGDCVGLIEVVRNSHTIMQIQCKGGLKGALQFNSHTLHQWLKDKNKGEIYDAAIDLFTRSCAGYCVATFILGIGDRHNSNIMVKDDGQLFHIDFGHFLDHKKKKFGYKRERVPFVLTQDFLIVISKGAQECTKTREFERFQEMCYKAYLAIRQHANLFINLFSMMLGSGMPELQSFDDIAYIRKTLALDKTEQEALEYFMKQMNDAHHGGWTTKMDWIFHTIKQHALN
Chain of PI3Kalpha (P27986 whole entry partner, canonical isoform): as the sequence (P27986 whole entry partner, canonical isoform) above

The term IC50 denotes the point on the concentration scale where inhibition reaches its midpoint. On to `C[C@@H]1CN(c2cnc(C#N)c(-c3cnn(C)c3)n2)CCN1C(=O)C1(C)CC1` [Compound 1-31, 5-{(3R)-3-methyl-4-[(1-methylcyclopropyl)carbonyl]piperazin-1-yl}-3-(1-methyl-1H-pyrazol-4-yl)pyrazine-2-carbonitrile], for which, on PI3Kdelta, the IC50 was 0.28 µM. Also, the “Selectivity versus PI3Kalpha” value on PI3Kalpha is over 10.

In the case of `C[C@@H]1CN(c2cnc(C#N)c(-c3cnn(C)c3)n2)CCN1C(=O)N1CCCC1` [Compound 1-32, 3-(1-methyl-1H-pyrazol-4-yl)-5-[(3R)-3-methyl-4-(pyrrolidin-1-ylcarbonyl)piperazin-1-yl]pyrazine-2-carbonitrile], the concentration for half-maximal inhibition (IC50) at PI3Kdelta came to 0.18 µM. For the same compound, the “Selectivity versus PI3Kalpha” value at PI3Kalpha is recorded as over 10.

For the compound `C[C@@H]1CN(c2cnc(C#N)c(-c3cnn(C)c3)n2)CCN1C(=O)N1CC2(COC2)C1` [Compound 1-33, 5-[(3R)-3-methyl-4-(2-oxa-6-azaspiro[3.3]hept-6-ylcarbonyl)piperazin-1-yl]-3-(1-methyl-1H-pyrazol-4-yl)pyrazine-2-carbonitrile], the IC50 on PI3Kdelta turned out to be 0.3 µM. Further, the “Selectivity versus PI3Kalpha” value on PI3Kalpha is over 10.

With `C[C@@H]1CN(c2cnc(C#N)c(-c3cnn(C)c3)n2)CCN1C(=O)NCC1CC1` [Compound 1-34, (2R)-4-[5-cyano-6-(1-methyl-1H-pyrazol-4-yl)pyrazin-2-yl]-N-(cyclopropylmethyl)-2-methylpiperazine-1-carboxamide], the concentration for half-maximal inhibition (IC50) on PI3Kdelta worked out at 0.21 µM. Also, the “Selectivity versus PI3Kalpha” value on PI3Kalpha is on record as over 10.

Consider `CO[C@H]1CCN(C(=O)N2CCN(c3cnc(C#N)c(-c4cnn(C)c4)n3)C[C@H]2C)C1` [Compound 1-35, 5-[(3R)-4-{[(3S)-3-methoxypyrrolidin-1-yl]carbonyl}-3-methylpiperazin-1-yl]-3-(1-methyl-1H-pyrazol-4-yl)pyrazine-2-carbonitrile], for which the IC50 on PI3Kdelta amounted to 0.11 µM. Further, at PI3Kalpha, the “Selectivity versus PI3Kalpha” value is reported as over 10.

Consider `COC1CN(C(=O)N2CCN(c3cnc(C#N)c(-c4cnn(C)c4)n3)C[C@H]2C)C1` [Compound 1-36, 5-{(3R)-4-[(3-methoxyazetidin-1-yl)carbonyl]-3-methylpiperazin-1-yl}-3-(1-methyl-1H-pyrazol-4-yl)pyrazine-2-carbonitrile], for which the IC50 on PI3Kdelta was determined as 0.16 µM. In addition, the “Selectivity versus PI3Kalpha” value at PI3Kalpha was over 10.

Turning to `C[C@@H]1CN(c2cnc(C#N)c(-c3cnn(C)c3)n2)CCN1C(=O)N1CCC1` [Compound 1-37, 5-[(3R)-4-(azetidin-1-ylcarbonyl)-3-methylpiperazin-1-yl]-3-(1-methyl-1H-pyrazol-4-yl)pyrazine-2-carbonitrile], the 50% inhibitory concentration (IC50) on PI3Kdelta was determined as 0.053 µM. In addition, the “Selectivity versus PI3Kalpha” value on PI3Kalpha is recorded as over 10.

With `COC(=O)N1CCN(c2cnc(C#N)c(-c3cnn(C)c3)n2)C[C@H]1C` [Compound 1-38, methyl (2R)-4-[5-cyano-6-(1-methyl-1H-pyrazol-4-yl)pyrazin-2-yl]-2-methylpiperazine-1-carboxylate], the half-inhibitory concentration (IC50) at PI3Kdelta was 0.21 µM. Besides, the “Selectivity versus PI3Kalpha” value on PI3Kalpha is over 10.

On to `C[C@@H]1C[C@H]1C(=O)N1CCN(c2cnc(C#N)c(-c3cn[nH]c3)n2)C[C@H]1C` [Compound 1-39, 5-[(3R)-3-methyl-4-{[(1R,2R)-2-methylcyclopropyl]carbonyl}piperazin-1-yl]-3-(1H-pyrazol-4-yl)pyrazine-2-carbonitrile], for which the IC50 at PI3Kdelta stood at 0.05 µM. On PI3Kalpha, the “Selectivity versus PI3Kalpha” value is reported as over 10.

The values above are taken from US11179389B2, “Purine inhibitors of human phosphatidylinositol 3-kinase delta” (Merck Sharp & Dohme Corp., priority 2017, dated 2021).
